From patent publication US8309552B2, “Immunomodulating heterocyclic compounds” (Medigene AG, priority 2003, dated 2012) come the findings set out here.

The EC50 is the concentration giving half of the maximal effect.

Bounds are passed on as bounds.

One test has as its target T1, CD80-CD28 interaction (Homo sapiens, UniProt P33681).
T1 sequence (P33681 35-242 limits assumed): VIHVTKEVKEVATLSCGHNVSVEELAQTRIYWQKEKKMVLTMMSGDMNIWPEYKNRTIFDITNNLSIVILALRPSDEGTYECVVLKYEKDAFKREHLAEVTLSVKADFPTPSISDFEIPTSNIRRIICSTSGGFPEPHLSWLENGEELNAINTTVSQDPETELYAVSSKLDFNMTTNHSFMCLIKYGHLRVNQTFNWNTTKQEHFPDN
In words: Homogenous Time Resolved Fluorescence (HTRF) assay, cell free. In kind it is binding. To be noted: cell free HTRF assay; concentration series 100 μM-1.7 nM; 4 hours at room temperature; read-out: Activity (EC50 in the HTRF assay). Summed up:
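Europium and APC labels were linked through antibodies to CD28 and CD80 fusion proteins. Compounds were tested at 100 μM-1.7 nM for 4 h at room temperature in 50 mM Tris-HCl, 150 mM NaCl pH7.8, 0.1% BSA. Emission read at 665 and 615 nm (excitation 340 nm); non-specific signal measured with C215 Fab in place of CD80; EC50 reported in bands.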
Turning to `O=C(NCCCCN1CCCC1)c1ccc(-n2[nH]c3c(nnc4c(Cl)cccc43)c2=O)cc1` [Example 413], the EC50 was under 1000 nM.
Turning to `CN(C)CCCNC(=O)c1ccc(-n2[nH]c3c(nnc4c(F)cc(F)cc43)c2=O)cc1` [Example 414], the EC50 was under 1000 nM.
With `O=C(NCCCNC1CCCCC1)c1ccc(-n2[nH]c3c(nnc4c(F)cc(F)cc43)c2=O)cc1` [Example 415], the EC50 is under 1000 nM.
With `O=C(NCCCCN1CCCC1)c1ccc(-n2[nH]c3c(nnc4c(F)cc(F)cc43)c2=O)cc1` [Example 416], the EC50 was under 1000 nM.
The same measure, in the same setting: with `CNCCCNC(=O)c1ccc(-n2[nH]c3c(nnc4ccc(OC)cc43)c2=O)cc1` [Example 418] the figure was under 1000 nM; with `O=C(NCCCCN1CCSCC1)c1ccc(-n2[nH]c3c(nnc4c(F)cccc43)c2=O)cc1` [Example 419], under 1000 nM; with `CN(C)CC(C)(C)CNC(=O)c1ccc(-n2[nH]c3c(nnc4c(F)cccc43)c2=O)cc1` [Example 420], under 1000 nM.
The same measure, in the same setting: the result for `O=C(c1ccc(-n2[nH]c3c(nnc4c(F)cccc43)c2=O)cc1)N1CCC(N2CCCCC2)CC1` [Example 421] reads 1000 to 10000 nM; that for `O=C(NC1CCC1)c1ccc(-n2[nH]c3c(nnc4c(F)cccc43)c2=O)cc1` [Example 424], under 1000 nM; that for `O=C(NC1CCCC1)c1ccc(-n2[nH]c3c(nnc4c(F)cccc43)c2=O)cc1` [Example 425], under 1000 nM.
Still for that read-out and setting: the result for `O=C(NCCF)c1ccc(-n2[nH]c3c(nnc4c(F)cccc43)c2=O)cc1` [Example 426] reads under 1000 nM; that for `CN1C(C)(C)CC(NC(=O)c2ccc(-n3[nH]c4c(nnc5ccc(F)cc54)c3=O)cc2)CC1(C)C` [Example 427], under 1000 nM.
With `CNCCCNC(=O)c1ccc(-n2[nH]c3c(nnc4c(F)ccc(F)c43)c2=O)cc1` [Example 428], the EC50 is under 1000 nM.
As to `O=C(NCCCCN1CCCC1)c1ccc(-n2[nH]c3c(nnc4c(F)ccc(F)c43)c2=O)cc1` [Example 430], the EC50 is under 1000 nM.
Consider `CN1C(C)(C)CC(NC(=O)c2ccc(-n3[nH]c4c(nnc5c(F)ccc(F)c54)c3=O)cc2)CC1(C)C` [Example 431], for which the EC50 was under 1000 nM.
As for `CCN(C)CCCCNC(=O)c1ccc(-n2[nH]c3c(nnc4c(F)cccc43)c2=O)cc1` [Example 432], the EC50 was under 1000 nM.
`O=C(NCCCCN1CCOCC1)c1ccc(-n2[nH]c3c(nnc4c(F)cccc43)c2=O)cc1` [Example 434]: the EC50 is under 1000 nM.
Still for that read-out and setting: with `C=CCN(C)CCCCNC(=O)c1ccc(-n2[nH]c3c(nnc4c(F)cccc43)c2=O)cc1` [Example 435] the figure was under 1000 nM; with `CN(CCCCNC(=O)c1ccc(-n2[nH]c3c(nnc4c(F)cccc43)c2=O)cc1)C1CCCCC1` [Example 436], under 1000 nM.

The same test, now with this note: cell-free HTRF, concentration series 100 μM-1.7 nM, 4 hours at room temperature; read-out: Activity (EC50 in the HTRF assay).
Turning to `O=C(NCCCCF)c1ccc(-n2[nH]c3c(nnc4c(F)cccc43)c2=O)cc1` [Example 437], the EC50 was under 1000 nM.
Same read-out and setting: the result for `CN(CCCNC(=O)c1ccc(-n2[nH]c3c(nnc4c(F)cccc43)c2=O)cc1)c1ccccc1` [Example 438] reads 1000 to 10000 nM; that for `CC1CC(C)(C)C(CNC(=O)c2ccc(-n3[nH]c4c(nnc5c(F)cccc54)c3=O)cc2)C1N` (stereo not shown) [Example 439], under 1000 nM.
For `O=C(NC1CCNCC1)c1ccc(-n2[nH]c3c(nnc4c(F)cccc43)c2=O)cc1` [Example 440], the EC50 was under 1000 nM.
On the same count and under the same terms, with `CC(N)C(C)CNC(=O)c1ccc(-n2[nH]c3c(nnc4c(F)cccc43)c2=O)cc1` (stereo not shown) [Example 443] the figure was under 1000 nM.
As for `O=C(NCC1CCNCC1)c1ccc(-n2[nH]c3c(nnc4c(F)cccc43)c2=O)cc1` [Example 444], the EC50 is under 1000 nM.
Turning to `NCCCNC(=O)c1ccc(-n2[nH]c3c(nnc4c(F)cccc43)c2=O)cc1` [Example 445], the EC50 is under 1000 nM.
`CN(C)CCCNC(=O)c1ccc(-n2[nH]c3c(nnc4ccc(Cl)cc43)c2=O)cc1` [Example 446]: the EC50 is under 1000 nM.
Same read-out and setting: with `CN1C(C)(C)CC(NC(=O)c2ccc(-n3[nH]c4c(nnc5ccc(Cl)cc54)c3=O)cc2)CC1(C)C` [Example 447] the figure was under 1000 nM; with `O=C(NCCCCN1CCCC1)c1ccc(-n2[nH]c3c(nnc4ccc(Cl)cc43)c2=O)cc1` [Example 449], under 1000 nM.
In the case of `CCNC(=O)c1ccc(-n2[nH]c3c(nnc4c(F)cccc43)c2=O)cc1` [Example 450], the EC50 was under 1000 nM.
Same read-out and setting: the result for `O=C(NCCCN1CCCCCC1)c1ccc(-n2[nH]c3c(nnc4c(F)cccc43)c2=O)cc1` [Example 451] reads under 1000 nM; that for `CCCN(CC)C(=O)c1ccc(-n2[nH]c3c(nnc4c(F)cccc43)c2=O)cc1` [Example 452], 1000 to 10000 nM; that for `CC1CCCCN1CCCCNC(=O)c1ccc(-n2[nH]c3c(nnc4c(F)cccc43)c2=O)cc1` (stereo not shown) [Example 454], under 1000 nM.
In the case of `CC(C)(C)CNC(=O)c1ccc(-n2[nH]c3c(nnc4c(F)cccc43)c2=O)cc1` [Example 455], the EC50 was under 1000 nM.
As for `O=C(NC1CCN(CC2CCCCC2)CC1)c1ccc(-n2[nH]c3c(nnc4c(F)cccc43)c2=O)cc1` [Example 456], the EC50 is under 1000 nM.
On the same count and under the same terms, the result for `O=C(NC1CCN(CCCCc2ccccc2)CC1)c1ccc(-n2[nH]c3c(nnc4c(F)cccc43)c2=O)cc1` [Example 457] reads under 1000 nM; that for `C=CCN(CC=C)CCCCNC(=O)c1ccc(-n2[nH]c3c(nnc4c(F)cccc43)c2=O)cc1` [Example 459], under 1000 nM.
Regarding `CC1CN(CCCCNC(=O)c2ccc(-n3[nH]c4c(nnc5c(F)cccc54)c3=O)cc2)CC(C)O1` (stereo not shown) [Example 460], the EC50 is under 1000 nM.
Same read-out and setting: with `CC1CN(C(=O)c2ccc(-n3[nH]c4c(nnc5c(F)cccc54)c3=O)cc2)CC(C)O1` (stereo not shown) [Example 461] the figure was under 1000 nM; with `O=C(NCCCCN1CCCCCC1)c1ccc(-n2[nH]c3c(nnc4c(F)cccc43)c2=O)cc1` [Example 462], under 1000 nM; with `O=C(c1ccc(-n2[nH]c3c(nnc4c(F)cccc43)c2=O)cc1)N1CCCCCC1` [Example 463], under 1000 nM.
Same read-out and setting: the result for `CC1CCN(CCCCNC(=O)c2ccc(-n3[nH]c4c(nnc5c(F)cccc54)c3=O)cc2)CC1` [Example 464] reads under 1000 nM; that for `CC1CCN(C(=O)c2ccc(-n3[nH]c4c(nnc5c(F)cccc54)c3=O)cc2)CC1` [Example 465], under 1000 nM; that for `CC1(C)CCCC(C)(C)N1CCCCNC(=O)c1ccc(-n2[nH]c3c(nnc4c(F)cccc43)c2=O)cc1` [Example 466], under 1000 nM.
With `O=C(NCC(F)(F)C(F)F)c1ccc(-n2[nH]c3c(nnc4c(F)cccc43)c2=O)cc1` [Example 467], the EC50 was under 1000 nM.
On the same count and under the same terms, the result for `CCCN(CCCCNC(=O)c1ccc(-n2[nH]c3c(nnc4c(F)cccc43)c2=O)cc1)CC1CC1` [Example 468] reads under 1000 nM.
On the same count and under the same terms, the result for `C=CCN(CCCCNC(=O)c1ccc(-n2[nH]c3c(nnc4c(F)cccc43)c2=O)cc1)C1CCCC1` [Example 469] reads under 1000 nM; that for `O=C(NCCCCN1CCC(C(F)(F)F)CC1)c1ccc(-n2[nH]c3c(nnc4c(F)cccc43)c2=O)cc1` [Example 470], under 1000 nM.
As to `O=C(NC1CCN(CCCCF)CC1)c1ccc(-n2[nH]c3c(nnc4c(F)cccc43)c2=O)cc1` [Example 471], the EC50 was under 1000 nM.
Same read-out and setting: with `C=CCN(CC=C)C(=O)c1ccc(-n2[nH]c3c(nnc4c(F)cccc43)c2=O)cc1` [Example 474] the figure was 1000 to 10000 nM.
As for `CC(C)CN(CCCCNC(=O)c1ccc(-n2[nH]c3c(nnc4c(F)cccc43)c2=O)cc1)CC(C)C` [Example 476], the EC50 was under 1000 nM.
Consider `CC1CC(C)CN(CCCCNC(=O)c2ccc(-n3[nH]c4c(nnc5c(F)cccc54)c3=O)cc2)C1` (stereo not shown) [Example 477], for which the EC50 was under 1000 nM.
Same read-out and setting: with `CC(C)(C)NCCCCNC(=O)c1ccc(-n2[nH]c3c(nnc4c(F)cccc43)c2=O)cc1` [Example 479] the figure was under 1000 nM.
Regarding `CCC(C)(C)NCCCCNC(=O)c1ccc(-n2[nH]c3c(nnc4c(F)cccc43)c2=O)cc1` [Example 480], the EC50 is under 1000 nM.
Still for that read-out and setting: with `CC(C)(C)CNCCCCNC(=O)c1ccc(-n2[nH]c3c(nnc4c(F)cccc43)c2=O)cc1` [Example 481] the figure was under 1000 nM; with `C=CCCN1CCC(NC(=O)c2ccc(-n3[nH]c4c(nnc5c(F)cccc54)c3=O)cc2)CC1` [Example 483], under 1000 nM; with `O=C(NC1CCN(CCC(F)=C(F)F)CC1)c1ccc(-n2[nH]c3c(nnc4c(F)cccc43)c2=O)cc1` [Example 484], under 1000 nM.
On the same count and under the same terms, with `O=C(NCCCC(F)F)c1ccc(-n2[nH]c3c(nnc4c(F)cccc43)c2=O)cc1` [Example 485] the figure was under 1000 nM; with `N#CCCNC(=O)c1ccc(-n2[nH]c3c(nnc4c(F)cccc43)c2=O)cc1` [Example 486], under 1000 nM; with `O=C(NC(CO)(CO)CO)c1ccc(-n2[nH]c3c(nnc4c(F)cccc43)c2=O)cc1` [Example 487], under 1000 nM.
Still for that read-out and setting: with `O=C(NC1CCNC1)c1ccc(-n2[nH]c3c(nnc4c(F)cccc43)c2=O)cc1` (stereo not shown) [Example 488] the figure was under 1000 nM.
Turning to `CN1CCCN(C(=O)c2ccc(-n3[nH]c4c(nnc5c(F)cccc54)c3=O)cc2)CC1` [Example 489], the EC50 was under 1000 nM.
On the same count and under the same terms, the result for `O=C(c1ccc(-n2[nH]c3c(nnc4c(F)cccc43)c2=O)cc1)N1CCCNCC1` [Example 490] reads under 1000 nM.
`NC(=O)CNC(=O)c1ccc(-n2[nH]c3c(nnc4c(F)cccc43)c2=O)cc1` [Example 491]: the EC50 was under 1000 nM.
